Measured values reported in patent US11236069B2, “KIF18A inhibitors” (AMGEN INC., priority 2018, dated 2022).

These compounds were tested against Recombinant human KIF18A (1-467 His-tagged) protein (Homo sapiens (Human), UniProt Q8NI77) (assay: KIF18A Enzyme Assay: microtubule-stimulated ATPase activity (ADP-Glo)). Details: read-out: KIF18A ATPase IC50; 30 nM KIF18A, 30 μg/mL pig microtubules, ATP at Km 75 μM, ADP-Glo luminescence.
Chain of Recombinant human KIF18A (1-467 His-tagged) protein (Q8NI77 1-467): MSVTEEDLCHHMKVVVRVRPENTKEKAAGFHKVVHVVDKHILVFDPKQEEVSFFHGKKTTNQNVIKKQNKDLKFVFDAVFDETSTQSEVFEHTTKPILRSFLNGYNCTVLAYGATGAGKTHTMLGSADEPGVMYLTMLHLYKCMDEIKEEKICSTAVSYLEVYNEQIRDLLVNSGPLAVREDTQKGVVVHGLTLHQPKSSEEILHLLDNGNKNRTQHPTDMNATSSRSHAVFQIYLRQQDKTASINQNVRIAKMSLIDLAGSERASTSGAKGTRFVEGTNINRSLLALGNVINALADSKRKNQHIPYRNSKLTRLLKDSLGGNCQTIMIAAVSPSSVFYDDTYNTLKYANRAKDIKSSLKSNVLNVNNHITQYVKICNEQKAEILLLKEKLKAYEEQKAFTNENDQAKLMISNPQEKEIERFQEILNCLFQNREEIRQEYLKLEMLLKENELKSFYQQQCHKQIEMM
Chain of Recombinant human KIF18A (1-467 His-tagged) protein (P02550 whole entry partner): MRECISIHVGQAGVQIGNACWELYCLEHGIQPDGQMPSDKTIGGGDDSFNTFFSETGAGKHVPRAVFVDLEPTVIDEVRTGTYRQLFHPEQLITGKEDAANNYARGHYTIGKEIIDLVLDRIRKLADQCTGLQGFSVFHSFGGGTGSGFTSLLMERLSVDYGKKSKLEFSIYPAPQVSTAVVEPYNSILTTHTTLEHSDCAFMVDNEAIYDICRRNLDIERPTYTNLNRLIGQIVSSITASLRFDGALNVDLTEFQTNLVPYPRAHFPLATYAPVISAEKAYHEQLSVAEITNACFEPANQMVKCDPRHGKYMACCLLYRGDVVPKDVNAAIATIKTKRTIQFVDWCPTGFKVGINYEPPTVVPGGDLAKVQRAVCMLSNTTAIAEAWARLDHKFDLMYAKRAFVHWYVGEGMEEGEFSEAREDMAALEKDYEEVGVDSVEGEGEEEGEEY
Chain of Recombinant human KIF18A (1-467 His-tagged) protein (P02554 whole entry partner): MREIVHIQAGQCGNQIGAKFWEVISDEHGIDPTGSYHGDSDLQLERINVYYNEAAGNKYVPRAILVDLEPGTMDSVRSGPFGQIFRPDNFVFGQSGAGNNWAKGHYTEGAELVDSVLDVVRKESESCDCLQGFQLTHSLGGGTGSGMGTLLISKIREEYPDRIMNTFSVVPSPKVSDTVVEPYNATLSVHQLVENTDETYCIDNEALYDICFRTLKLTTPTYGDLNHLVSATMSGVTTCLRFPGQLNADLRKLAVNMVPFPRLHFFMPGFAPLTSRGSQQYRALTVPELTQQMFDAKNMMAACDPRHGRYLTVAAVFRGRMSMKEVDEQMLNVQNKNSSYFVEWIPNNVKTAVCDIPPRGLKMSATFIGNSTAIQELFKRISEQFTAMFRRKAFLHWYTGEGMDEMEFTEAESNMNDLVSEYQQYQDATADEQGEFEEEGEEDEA
From the text: KIF18A Enzyme Assay: Microtubule-stimulated ATPase activity assay is used to measure KIF18A enzyme activity after treatment with compound. Compounds were 2-fold serially diluted in DMSO (Sigma Inc) over 22-point concentration range. […] The assay measures ADP formed from the ATPase reaction.

SMILES	IC50
C[C@@H]1CN(c2nccc(NC(=O)c3ccc(NS(=O)(=O)[C@@H](C)CO)cc3N3CCC4(CC3)CC4)n2)CCO1 [Example 6-24-1, 4-(((S)-2-Hydroxy-1-methylethyl)sulfonamido)-N-(2-((R)-2-methylmorpholino)pyrimidin-4-yl)-2-(6-azaspiro[2.5]octan-6-yl)benzamide]	0.0174 µM
Cc1cc(NC(=O)c2ccc(NS(=O)(=O)[C@@H](C)CO)cc2N2CCC3(CC2)CC3)nc(N2CCC(F)CC2)n1 [Example 6-25-1, (S)-N-(2-(4-fluoropiperidin-1-yl)-6-methylpyrimidin-4-yl)-4-((2-hydroxy-1-methylethyl)sulfonamido)-2-(6-azaspiro[2.5]octan-6-yl)benzamide]	0.047 µM
C[C@@H](CO)S(=O)(=O)Nc1ccc(C(=O)Nc2ccnc(N3CCC(F)(F)CC3)n2)c(N2CCC3(CC2)CC3)c1 [Example 6-26-1, (S)-N-(2-(4,4-Difluoropiperidin-1-yl)pyrimidin-4-yl)-4-((2-hydroxy-1-methylethyl)sulfonamido)-2-(6-azaspiro[2.5]octan-6-yl)benzamide]	0.031 µM
C[C@H](CO)S(=O)(=O)Nc1ccc(C(=O)Nc2ccnc(N3CCC(F)(F)CC3)n2)c(N2CCC3(CC2)CC3)c1 [Example 6-26-2, (R)-N-(2-(4,4-Difluoropiperidin-1-yl)pyrimidin-4-yl)-4-((2-hydroxy-1-methylethyl)sulfonamido)-2-(6-azaspiro[2.5]octan-6-yl)benzamide]	0.021 µM
Cc1cc(NC(=O)c2ccc(NS(=O)(=O)C[C@@H](C)O)cc2N2CCC3(CC2)CC3)nc(N2CCO[C@H](C)C2)n1 [Example 6-27-1, 4-(((R)-2-Hydroxypropoyl)sulfonamido)-N-(6-methyl-2-((R)-2-methylmorpholino)pyrimidin-4-yl)-2-(6-azaspiro[2.5]octan-6-yl)benzamide]	0.162 µM
Cc1cc(NC(=O)c2ccc(NS(=O)(=O)C[C@@H](C)O)cc2N2CCC3(CC2)CC3)nc(OCCC(F)(F)F)n1 [Example 6-28-1, (R)-4-((2-Hydroxypropyl)sulfonamido)-N-(6-methyl-2-(3,3,3-trifluoropropoxy)pyrimidin-4-yl)-2-(6-azaspiro[2.5]octan-6-yl)benzamide]	0.068 µM
O=C(Nc1ccnc(N2CCC(F)(F)CC2)c1)c1ccc(NS(=O)(=O)CCO)cc1N1CCC2(CC1)CC2 [Example 6-29, N-(2-(4,4-Difluoropiperidin-1-yl)pyridin-4-yl)-4-((2-hydroxyethyl)sulfonamido)-2-(6-azaspiro[2.5]octan-6-yl)benzamide]	0.017 µM

Continued by falling IC50, values first:

IC50	SMILES
0.071 µM	Cc1cc(NC(=O)c2ccc(NS(=O)(=O)C[C@H](C)O)cc2N2CCC3(CC2)CC3)nc(OCCC(F)(F)F)n1 [Example 6-28-2, (S)-4-((2-Hydroxypropyl)sulfonamido)-N-(6-methyl-2-(3,3,3-trifluoropropoxy)pyrimidin-4-yl)-2-(6-azaspiro[2.5]octan-6-yl)benzamide]
0.041 µM	Cc1cc(NC(=O)c2ccc(NS(=O)(=O)[C@H](C)CO)cc2N2CCC3(CC2)CC3)nc(N2CCC(F)CC2)n1 [Example 6-25-2, (R)-N-(2-(4-Fluoropiperidin-1-yl)-6-methylpyrimidin-4-yl)-4-((2-hydroxy-1-methylethyl)sulfonamido)-2-(6-azaspiro[2.5]octan-6-yl)benzamide]
0.0373 µM	Cc1cc(NC(=O)c2ccc(NS(=O)(=O)[C@H](C)CO)cc2N2CCC3(CC2)CC3)nc(N2CCO[C@H](C)C2)n1 [Example 6-23-2, 4-(((R)-2-Hydroxy-1-methylethyl)sulfonamido)-N-(6-methyl-2-((R)-2-methylmorpholino)pyrimidin-4-yl)-2-(6-azaspiro[2.5]octan-6-yl)benzamide]
0.028 µM	C[C@@H]1CN(c2nccc(NC(=O)c3ccc(NS(=O)(=O)[C@H](C)CO)cc3N3CCC4(CC3)CC4)n2)CCO1 [Example 6-24-2, 4-(((R)-2-hydroxy-1-methylethyl)sulfonamido)-N-(2-((R)-2-methylmorpholino)pyrimidin-4-yl)-2-(6-azaspiro[2.5]octan-6-yl)benzamide]
